Data from US5225404A, “Methods of treating colon tumors with tumor-inhibiting camptothecin compounds” (New York University, priority 1989, dated 1993).
Entries after “also recorded” stand apart in the source; their conditions may differ. Where a name gives a salt, the structure may show the parent alone. Read-outs that look alike come from different tables or passages of the source.

Experiments:
subcutaneous tumors = assay type: in vivo, mice
[1] = test system: metastases of human colon cancer in the liver; experiment: metastases of human colon cancer in the liver of immunodeficient mice (Example 6); assay type: in vivo; conditions: 30 mg/kg body weight (total dose); for increase of survival: from average of 23 days; for average survival: increased from 23 days
Description: (§1) Daily injections or 2 injections per week of 10,11-methylenedioxy-20(RS)-camptothecin (total doses 50-70 mg/kg of body weight) stopped the growth of day-7 CASE tumors for a period of 4-6 weeks in 6/6 mice. Five injections of 10,11-methylenedioxy-20(RS)-camptothecin sodium salt (10 mg/kg body weight/dose) stopped the growth of day-7 CASE tumors in 6/6 mice for a period of 4 weeks. Both drugs inhibited at 30 mg/kg body weight (total dose) the growth of metastases of human colon cancer in the liver of immunodeficient mice, and increased the survival of such mice by ~100% (from average of 23 to 46 days).

[2] = overall toxicity in tumor-bearing mice (Example 7); assay type: in vivo
Text: Another important feature of the method provided by the present invention relates to the relatively low or no apparent overall toxicity of the camptothecin compounds administered in accordance herein. Overall toxicity can be judged using various criteria. For example, loss of body weight in a subject over 10% of the initially recorded body weight (i.e., before treatment) can be considered as one sign of toxicity. In addition, loss of overall mobility and activity and signs of diarrhea or cystitis in a subject can also be interpreted as evidence of toxicity. In one of the examples which follow, the overall toxicity of the camptothecin compounds was evaluated.
The overall toxicity of the colon tumor-inhibiting camptothecin compounds was next to be evaluated at various dosages. The overall toxicity of 9-amino-20(RS)-camptothecin, 10,11-methylenedioxy-camptothecin and the sodium salt of 10,11-methylenedioxy-camptothecin was evaluated in this example as follows: tumor fragments were implanted under the skin of 5-6 mice in each group beginning on day 0. The mice were injected with one of the compounds beginning on day 7 after visible signs that malignant growth of the implanted tumor had occurred. The injections of the compound were given at predetermined doses of 10 or 12.5 mg/kg of body weight per week for a total of 3-6 weeks. Injections were daily or given two times per week. The body weights of the controls (mice with tumors, injected with placebo) and that of the drug-treated mice were taken two times each week and recorded. Overall toxicity was determined in the following way: loss of body weight after treatment in a subject of more than 10% over the initial body weight of the subject recorded at the beginning of the experiment, was considered a sign of toxicity. The mice were also monitored for their ability to regain the lost body weight. Regaining entirely its lost body weight would therefore be a sign of low toxicity in a subject. In addition, mice were monitored for their overall mobility and activity as well as for signs of diarrhea or cystitis. Mobility/activity was judged on a sliding scale of 1 to 5. That is, a score of 1 indicated good mobility/activity and a score of 5 indicated poor mobility/activity. Diarrhea and cystitis were judged on a plus/minus basis.

CASE cell line = experiment: CASE human colon cancer xenograft in immunodeficient mice (Examples 3, 4, 6); assay type: in vivo, human (xenograft in immunodeficient NIH-1 mice)
Text: (§2) In these four examples, three xenograft lines of human colon cancer were selected to test the effectiveness of various drugs or compounds in treating human colon cancer. These xenograft lines included the following: (1) A moderate-to-poorly differentiated human colon cancer HT-29; (2) poorly differentiated colon cancer lines designated CASE; and (3) SW48. Liebowitz, A. et al., Cancer Res. 36:4562 (1976); and Fogh, J., et al., Human Tumor Cells […], J. Fogh, ed. Plenum Press, New York, pp. 115-159 (1975). The HT-29, CASE and SW48 cell lines were implanted into immunodeficient NIH-1 mice. Each control or drug-treated group included 6 males. Tumor fragments were implanted on day 0. For each implant, 50 mg of wet weight finely minced tumor tissue in 0.5 ml EMEM (Gibco, Grand Island, N.Y.) was injected under the skin over the right dorsal chest region. The drugs were formulated in Tween 80:0.15 NaCl and injected subcutaneously, with the exception of doxorubicin, which was injected intravenously. The treatment started on day 7 and continued 2x/week for 5-6 weeks. Drug doses were based on an established median toxic dose for the schedule applied. Controls were treated with the solvent only. The tumors were measured in three dimensions with a caliper, and tumor volume calculated. The care and treatment of experimental mice was in accordance with institutional guidelines.
In Example 3, the CASE cell line was employed.
Example 4 illustrates the results of an experiment in which a second course of treatment followed a first course of treatment. On day 51 after tumor implantation, mice with CASE tumors and minimal disease received the second course of therapy. These mice received a total of 14 injections (doses) of 12.5 mg/kg body weight/dose (FIG. 4).
as §1

topoisomerase I = experiment: topoisomerase I-directed screens; assay type: biochemical
human colon cancer HT-29 = experiment: HT-29 human colon cancer xenograft in immunodeficient mice (Example 2); assay type: in vivo, human (xenograft in immunodeficient NIH-1 mice)
Text: as §2
In FIG. 2, 9-AC represents 9-amino-20(RS)-camptothecin. The means of tumor volumes in cubic centimeters (cm^3) were plotted against time; S.D. (standard deviation) of the means was less than 15% of the value.

mouse leukemias = conditions: in vivo; cited from earlier work
[3] = test system: advanced incurable cancers; conditions: cited from earlier work
[4] = test system: SW48 human colon cancer cell line; experiment: SW48 human colon cancer xenograft in immunodeficient mice (Example 5); assay type: in vivo, human (xenograft in immunodeficient NIH-1 mice)
Text: as §2
In Example 5, a course of treatment was carried out with the SW48 human colon cancer cell line. This tumor line is extremely unresponsive to treatment. Liebowitz, A., et al., Cancer Res. 36:4562 (1976); and Fogh, J., et al., Human Tumor Cells in Vitro, J. Fogh, ed. Plenum Press, New York, pp. 115-159 (1975).
It should be noted that the first course of treatments of the CASE and SW48 lines, described above, started with well-established tumors, averaging 0.2-0.25 cm^3 in volume. In Example 5, day=35 SW48 tumors (average size 2.5 cm^3), were selected for the first treatment with 9-amino-20(RS)-camptothecin. […]

colon cancer = conditions: cited from earlier work
[5] = daily or 2 injections per week, total doses 50-70 mg/kg
[6] = twice/week treatment, total dose 50 mg/kg
[7] = daily treatment, total dose 25 mg/kg
[8] = five injections, 10 mg/kg body weight/dose
[9] = first course, 12.5 mg/kg body weight
[10] = patients with metastases to the liver

## CCC1(O)C(=O)OCc2c1cc1n(c2=O)Cc2cc3cc4c(cc3nc2-1)OCO4 (racemic) [10,11-methylenedioxy-20(RS)-camptothecin]
Subcutaneous tumors; 100 mg/kg, two times per week
  therapeutic response (in words): complete reduction of subcutaneous tumors
Subcutaneous tumors; 100 mg/kg, two times per week, listed as 10,11-methylenedioxy-20(RS) camptothecin
  therapeutic response (in words): completely reducing subcutaneous tumors
[1]
  growth of metastases of human colon cancer in the liver: inhibited
  increase of survival: ~ 100%
  average survival: 46 days
[2]; 70 mg/kg body weight (total dose)
  decrease of body weight: less than 10%
[2]; twice/week treatment, total dose 100 mg/kg, 100 mg/kg
  Overall Toxicity: no overall toxicity
[2]; twice/week treatment, total dose 100 mg/kg, listed as 10,11-Methylenedioxy-20(RS), 100 mg/kg
  Overall Toxicity: none
[2]; twice/week treatment, total dose 100 mg/kg, listed as 10,11-methylenedioxy-20(RS) camptothecin, 100 mg/kg
  Overall Toxicity: no overall toxicity
CASE cell line; [5]
  mice in which growth of day-7 tumors stopped: 6/6
  period for which growth of day-7 tumors stopped: 4-6 weeks
Topoisomerase I
  activity in topoisomerase I-directed screens: highly active

## CN(Cc1cnc2nc(N)nc(N)c2n1)c1ccc(C(=O)N[C@@H](CCC(=O)O)C(=O)O)cc1 [methotrexate, reference compound]
Human colon cancer HT-29; 160 mg/kg body weight/dose
  growth-retardation of tumor implants: only marginal growth-retardation

## CC[C@@]1(O)C(=O)OCc2c1cc1n(c2=O)Cc2cc3ccccc3nc2-1 [20(S)-camptothecin, reference compound]
Mouse leukemias
  activity against mouse leukemias: effective against mouse leukemias
[2]; 50 mg/kg body weight
  toxic deaths: toxic deaths of all animals
[2]; twice/week treatment, total dose 28 mg/kg
  Overall Toxicity: body weight loss: > 15%
[2]; [6]
  Overall Toxicity: animal deaths
[2]; twice/week treatment, total dose 70 mg/kg
  Overall Toxicity: animal deaths

## CCC(O)(C(=O)O)c1cc2n(c(=O)c1CO)Cc1cc3cc4c(cc3nc1-2)OCO4 (racemic) [sodium salt of 10,11-methylenedioxy-20(RS)-camptothecin]
[1]
  growth of metastases of human colon cancer in the liver: inhibited
  increase of survival: ~ 100%
  average survival: 46 days
[2]; 62.5 mg/kg body weight
  toxic deaths: toxic deaths of all animals
[2]; [7]
  Overall Toxicity: animal deaths
  Overall Toxicity: body weight loss: < 10%
[2]; daily treatment, total dose 200 mg/kg
  Overall Toxicity: animal deaths
[2]; [6]
  Overall Toxicity: body weight loss: 20%
[2]; twice/week treatment, total dose 62.5 mg/kg
  Overall Toxicity: animal deaths
CASE cell line; [8]
  mice in which growth of day-7 tumors stopped: 6/6
  period for which growth of day-7 tumors stopped: 4 weeks
Topoisomerase I
  activity in topoisomerase I-directed screens: highly active

## CC[C@@](O)(C(=O)O)c1cc2n(c(=O)c1CO)Cc1cc3ccccc3nc1-2 [sodium salt of 20(S)-camptothecin]
[3]; patients with various cancers
  limiting factor (toxicity): Leukopenia
  most prominent non-hematological complication: Hemorrhagic cystitis
[3]; patients
  gastrointestinal toxicity or sterile hemorrhagic cystitis observed among patients: observed
[3]; several patients, some with colorectal cancer, unresponsive to previous treatments
  clinical response: temporary relief of the disease
[3]; several patients, some with colorectal cancer
  median survival (in words): marginal prolongation of median survival

## CCC1(O)C(=O)OCc2c1cc1n(c2=O)Cc2cc3c(N)cccc3nc2-1 (racemic) [9-amino-20(RS)-camptothecin]
Human colon cancer HT-29; 10 mg/kg body weight/dose
  duration of remission (mean+S.D.): 62 ± 20 days
Human colon cancer HT-29; 10 mg/kg/dose s.c., twice a week, 6 weeks
  mice with no evidence of disease (NED) or minimal disease (tumor volume=0.1 cm^3): 5/6
Human colon cancer HT-29; 12.5 mg/kg body weight/dose
  duration of remission (mean+S.D.): 56 ± 15 days
  mice with NED or minimal disease: 6/6
Human colon cancer HT-29; second course, average tumor size 8.3 cm^3, total dose 60 mg/kg
  reduction of tumor volume (average): 45%
Subcutaneous tumors; mouse, in vivo
  therapeutic response (in words): completely reducing subcutaneous tumors; also recorded: complete reduction of subcutaneous tumors
[4]; after second course, 75 mg/kg total dose
  long-term tumor-free survival (in excess of 7 months): 6/6
[4]; [9]
  mice with NED or minimal disease: 6/6
[4]; first treatment of day 35 tumors (average 2.5 cm^3), 6 doses of 12.5 mg/kg, twice a week
  reduction in the volume of the tumors (average): 91%
[2]; second course, 50-75 mg/kg
  gastrointestinal toxicity or sterile hemorrhagic cystitis: no signs
[2]; second course, 50-75 mg/kg body weight
  toxicity of second course of treatment: more toxic than the first
[2]; twice/week treatment, total dose 150 mg/kg, 150 mg/kg
  Overall Toxicity: no overall toxicity
[2]; twice/week treatment, total dose 150 mg/kg, listed as 9-Amino-20(RS)-camptothecin, 150 mg/kg
  Overall Toxicity: none
[2]; twice/week treatment, total dose 175 mg/kg (cumulative)
  Overall Toxicity: body weight loss: ≤ 20%
CASE cell line; CASE tumors, after second course
  long-term tumor-free survival (in excess of 7 months): 7/8
CASE cell line; [9]
  mice with NED or minimal disease: 6/6
CASE cell line; second course, total of 14 doses of 12.5 mg/kg
  mice with NED: 5/6
CASE cell line; second course, total of 14 doses of 12.5 mg/kg, of 6 mice
  mice with minimal disease: the other had minimal disease

## O=c1[nH]cc(F)c(=O)[nH]1 [5-fluorouracil]
Human colon cancer HT-29; 80 mg/kg of body weight/dose
  growth-retardation of tumor implants: only marginal growth-retardation
Colon cancer; human, in vivo
  effectiveness in treating colon cancer: only marginally effective
Colon cancer; [10]
  cases with temporary improvement: ≤ 25%
  overall survival: not significantly affected

## CCC1(O)C(=O)OCc2c1cc1n(c2=O)Cc2cc3cc(N)ccc3nc2-1 (racemic) [10-amino-20(RS)-camptothecin, reference compound]
[2]; 25 mg/kg body weight
  toxic deaths: toxic deaths of all animals
[2]; twice/week treatment, total dose 100 mg/kg
  Overall Toxicity: body weight loss: < 15%
